Experimental data published in patent publication US9493444B2 (Merck Patent GmbH, priority 2012, dated 2016).
pIC50: −log10 of the molar value.

The compounds below were run on Wnt pathway (TCF-dependent transcription in HEK293 luciferase reporter cell line with ER-DSH construct) (assay: Cellular assay for Wnt pathway activity (luciferase reporter)). Conditions: Homo sapiens; Wnt pathway inhibition, HEK293 luciferase reporter cells (ER-DSH, TCF promoter), 24 hours incubation, estrogen-induced.
Assay type: cell-based
Outline: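 Compounds (30 μM down to 1 nM) were incubated 24 h on cells induced for TCF-dependent transcription with estrogen. Luciferase activity was read by luminescence, normalized to untreated vehicle control, and fitted for IC50.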

CN(CCN(C)S(C)(=O)=O)c1cncc(Oc2ccc(F)cc2)n1 [Compound 281, N-(2-{[6-(4-Fluoro-phenoxy)-pyrazin-2-yl]-methyl-amino}-ethyl)-N-methyl-methane-sulfonamide] and CCC(=O)N(C)CCN(C)c1cncc(Oc2ccc(F)cc2)n1 [Compound 34, N-(2-{[6-(4-Fluoro-phenoxy)pyrazin-2-yl]-methyl-amino}-ethyl)-N-methyl-propionamide] fall in the same range of pIC50: 5.00 to 6.00 for the first, 5.00 to 6.00 for the second.

CC(=O)N(C)CCN(C)c1cncc(Oc2ccc(S(C)(=O)=O)cc2)n1 [Compound 100, N-(2-{[6-(4-Methane-sulfonyl-phenoxy)-pyrazin-2-yl]-methyl-amino}-ethyl)-N-methyl-acetamide] and CC(=O)N(C)CCN(C)c1cncc(Oc2ccc(Cl)cc2)n1 [Compound 36, N-(2-{[6-(4-Chloro-phenoxy)-pyrazin-2-yl]-methyl-amino}-ethyl)-N-methyl-acetamide] fall in the same range of pIC50: 6.00 to 6.70 for the first, 6.00 to 6.70 for the second.

First: CNC(=O)CCN(C)c1cncc(Oc2ccc(F)cc2)n1 [Compound 29]
Second: CN(CCC(N)=O)c1cncc(Oc2ccc(F)cc2)n1 [Compound 156, 3-{[6-(4-Fluoro-phenoxy)-pyrazin-2-yl]-methyl-amino}-propion-amide]
The pIC50 of the first is higher: 6.00 to 6.70 for the first, 5.00 to 6.00 for the second. The first is the more potent here.

First: COc1cc(-c2ccc(Oc3cncc(N(C)CCN(C)C(C)=O)n3)cc2)ccn1 [Compound 194, N-[2-({6-[4-(2-Methoxy-pyridin-4-yl)-phenoxy]-pyrazin-2-yl}-methyl-amino)-ethyl]-N-methyl-acetamide]
Second: CC(=O)N(C)CCN(C)c1cncc(Oc2ccc(-c3ccc(C)nc3)cc2)n1 [Compound 183, N-Methyl-N-[2-(methyl-{6-[4-(6-methyl-pyridin-3-yl)-phenoxy]-pyrazin-2-yl}-amino)-ethyl]-acetamide]
The pIC50 of the first is lower: 6.00 to 6.70 for the first, greater than 6.70 for the second.

First: CCN(CCN(C)c1cncc(Oc2ccc(F)cc2)n1)C(C)=O [Compound 90, N-Ethyl-N-(2-{[6-(4-fluoro-phenoxy)-pyrazin-2-yl]-methyl-amino}-ethyl)-acetamide]
Second: CC(=O)N(C)CCCN(C)c1cncc(Oc2ccc(F)cc2)n1 [Compound 83, N-(3-{[6-(4-Fluoro-phenoxy)-pyrazin-2-yl]-methyl-amino}-propyl)-N-methyl-acetamide]
The pIC50 of the first is higher: greater than 6.70 for the first, 5.00 to 6.00 for the second.

CC(=O)N(C)CCN(C)c1cncc(Oc2ccc(-c3ccccc3S(C)(=O)=O)cc2)n1 [Compound 150, N-(2-{[6-(2′-Methane-sulfonyl-biphenyl-4-yloxy)-pyrazin-2-yl]-methyl-amino}-ethyl)-N-methyl-acetamide] and CC(=O)N(C)CCN(C)c1cncc(Oc2ccc(-c3ccc(F)cn3)cc2)n1 [Compound 152, N-[2-({6-[4-(5-Fluoro-pyridin-2-yl)-phenoxy]-pyrazin-2-yl}-methyl-amino)-ethyl]-N-methyl-acetamide] cannot be ordered by pIC50: greater than 6.70 for the first, greater than 6.70 for the second.

COc1ccc(Oc2cncc(N(C)CCN(C)S(=O)(=O)c3cc(F)ccc3F)n2)cc1 [Compound 61, 2,5-Difluoro-N-(2-{[6-(4-methoxy-phenoxy)-pyrazin-2-yl]-methyl-amino}-ethyl)-N-methyl-benzene-sulfonamide] and C=CC(=O)N(C)CCN(C)c1cncc(Oc2ccc(F)cc2)n1 [Compound 290, N-(2-{[6-(4-Fluoro-phenoxy)-pyrazin-2-yl]-methyl-amino}-ethyl)-N-methyl-acrylamide] fall in the same range of pIC50: 5.00 to 6.00 for the first, 5.00 to 6.00 for the second.

CC(=O)N(C)CCN(C)c1cncc(Oc2ccc(-c3ccc(C)cn3)cc2F)n1 [Compound 229, N-[2-({6-[2-Fluoro-4-(5-methyl-pyridin-2-yl)-phenoxy]-pyrazin-2-yl}-methyl-amino)-ethyl]-N-methyl-acetamide] and CC(=O)N(C)CCN(C)c1cncc(Oc2ccc(-c3cnc(N)cn3)cc2F)n1 [Compound 238, N-[2-({6-[4-(5-Amino-pyrazin-2-yl)-2-fluoro-phenoxy]-pyrazin-2-yl}-methyl-amino)-ethyl]-N-methyl-acetamide] cannot be ordered by pIC50: greater than 6.70 for the first, greater than 6.70 for the second.

CC(=O)N(C)CCN(C)c1cncc(Oc2ccc(Cl)c(C(F)(F)F)c2)n1 [Compound 88, N-(2-{[6-(4-Chloro-3-trifluoro-methyl-phenoxy)-pyrazin-2-yl]-methyl-amino}-ethyl)-N-methyl-acetamide] and CC(=O)N(C)CCN(C)c1cncc(Oc2ccc(-c3cc(C(F)(F)F)ccn3)cc2)n1 [Compound 128, N-Methyl-N-[2-(methyl-{6-[4-(4-trifluoro-methyl-pyridin-2-yl)-phenoxy]-pyrazin-2-yl}-amino)-ethyl]-acetamide] fall in the same range of pIC50: 5.00 to 6.00 for the first, 5.00 to 6.00 for the second.

First: CC(=O)N(C)CCN(C)c1cncc(Oc2ccc3c(cnn3C)c2)n1 [Compound 317, N-Methyl-N-(2-{methyl-[6-(1-methyl-1H-indazol-5-yloxy)-pyrazin-2-yl]-amino}-ethyl)-acetamide]
Second: CC(=O)N(C)CCN(C)c1cncc(Oc2ccc3ncccc3c2)n1 [Compound 47, N-Methyl-N-(2-{methyl-[6-(quinolin-6-yloxy)-pyrazin-2-yl]-amino}-ethyl)-acetamide]
The pIC50 of the first is higher: greater than 6.70 for the first, 5.00 to 6.00 for the second.

CC(=O)N(C)CCN(C)c1cncc(Oc2ccc(-c3cc(C)cc[n+]3[O-])cc2)n1 [Compound 174, N-Methyl-N-[2-(methyl-{6-[4-(4-methyl-1-oxy-pyridin-2-yl)-phenoxy]-pyrazin-2-yl}-amino)-ethyl]-acetamide] and CC(=O)N(C)CCN(C)c1cncc(Oc2ccc(-c3cc(C(N)=O)ccn3)cc2)n1 [Compound 192, 2-[4-(6-{[2-(Acetyl-methyl-amino)-ethyl]-methyl-amino}-pyrazin-2-yloxy)-phenyl]-isonico-tinamide] fall in the same range of pIC50: 6.00 to 6.70 for the first, 6.00 to 6.70 for the second.

First: CC(=O)N(C)CCN(C)c1cncc(Oc2ccc(F)cc2F)n1 [Compound 105, N-(2-{[6-(2,4-Difluoro-phenoxy)-pyrazin-2-yl]-methyl-amino}-ethyl)-N-methyl-acetamide]
Second: COc1cc(C(C)=O)ccc1Oc1cncc(N(C)CCN(C)C(C)=O)n1 [Compound 243, N-(2-{[6-(4-Acetyl-2-methoxy-phenoxy)-pyrazin-2-yl]-methyl-amino}-ethyl)-N-methyl-acetamide]
The pIC50 of the first is higher: 6.00 to 6.70 for the first, 5.00 to 6.00 for the second.

Cc1ccc(-c2ccc(Oc3cncc(N(C)CCN4CCCCC4=O)n3)cc2)nc1 [Compound 193, 1-[2-(Methyl-{6-[4-(5-methyl-pyridin-2-yl)-phenoxy]-pyrazin-2-yl}-amino)-ethyl]-piperidin-2-one] and Nc1cnc(-c2ccc(Oc3cncc(NCCN4CCCCC4=O)n3)cc2)cn1 [Compound 291, 1-(2-{6-[4-(5-Amino-pyrazin-2-yl)-phenoxy]-pyrazin-2-ylamino}-ethyl)-piperidin-2-one] cannot be ordered by pIC50: greater than 6.70 for the first, greater than 6.70 for the second.

CC(=O)NCCSc1cncc(Oc2ccc(F)cc2)n1 [Compound 119, N-{2-[6-(4-Fluoro-phenoxy)-pyrazin-2-ylsulfanyl]-ethyl}-acetamide] and CC(=O)N1CCCC(CNc2cncc(Oc3ccc(F)cc3)n2)C1 (stereo not shown) [Compound 39, 1-(3-{[6-(4-Fluoro-phenoxy)-pyrazin-2-ylamino]-methyl}-piperidin-1-yl)-ethanone] fall in the same range of pIC50: 5.00 to 6.00 for the first, 5.00 to 6.00 for the second.

CC(=O)N(C)CCNc1cncc(Oc2ccc(-c3ccc(S(N)(=O)=O)cn3)cc2)n1 [Compound 294, N-Methyl-N-(2-{6-[4-(5-sulfamoyl-pyridin-2-yl)-phenoxy]-pyrazin-2-ylamino}-ethyl)-acetamide] and NC(=O)CCNc1cncc(Oc2ccc(-c3cnc(N)cn3)cc2)n1 [Compound 301, 3-{6-[4-(5-Amino-pyrazin-2-yl)-phenoxy]-pyrazin-2-ylamino}-propionamide] fall in the same range of pIC50: 5.00 to 6.00 for the first, 5.00 to 6.00 for the second.

First: CC(=O)N(C)CCN(C)c1cncc(Oc2ccc(-c3ccc(CCN)cc3)cc2)n1 [Compound 251, N-[2-({6-[4′-(2-Amino-ethyl)-biphenyl-4-yloxy]-pyrazin-2-yl}-methyl-amino)-ethyl]-N-methyl-acetamide]
Second: CC(=O)N(C)CCN(C)c1cncc(Oc2ccc(CC(N)=O)cc2)n1 [Compound 117, 2-[4-(6-{[2-(Acetyl-methyl-amino)-ethyl]-methyl-amino}-pyrazin-2-yloxy)-phenyl]-acetamide]
The pIC50 of the first is higher: greater than 6.70 for the first, 6.00 to 6.70 for the second.

CC(=O)N(C)CCN(C)c1cncc(Oc2ccc(C(C)C)cc2)n1 [Compound 95, N-(2-{[6-(4-Isopropyl-phenoxy)-pyrazin-2-yl]-methyl-amino}-ethyl)-N-methyl-acetamide] and CC(=O)N(C)CCN(C)c1cncc(Oc2ccc(CC#N)cc2)n1 [Compound 142, N-(2-{[6-(4-Cyano-methyl-phenoxy)-pyrazin-2-yl]-methyl-amino}-ethyl)-N-methyl-acetamide] cannot be ordered by pIC50: greater than 6.70 for the first, greater than 6.70 for the second.

O=C1[C@@H]2CC[C@@H](C2)N1CCCc1cncc(Oc2ccc(F)cc2)n1 [Compound 303, (1S,4R)-2-{3-[6-(4-Fluoro-phenoxy)-pyrazin-2-yl]-propyl}-2-aza-bicyclo[2.2.1]heptan-3-one] and CC(=O)N(C)CCCc1cncc(Oc2ccc(-c3cccc(N4CCN(C)CC4)n3)cc2)n1 [Compound 217, N-Methyl-N-[3-(6-{4-[6-(4-methyl-piperazin-1-yl)-pyridin-2-yl]-phenoxy}-pyrazin-2-yl)-propyl]-acetamide] fall in the same range of pIC50: 6.00 to 6.70 for the first, 6.00 to 6.70 for the second.

First: CC(=O)N(C)CCN(C)c1cncc(Oc2cnc3[nH]ccc3c2)n1 [Compound 250, N-Methyl-N-(2-{methyl-[6-(1H-pyrrolo[2,3-b]pyridin-5-yloxy)-pyrazin-2-yl]-amino}-ethyl)-acetamide]
Second: CC(=O)N(C)CCN(C)c1cncc(Oc2ccc(-n3ccnc3)cc2)n1 [Compound 118]
The pIC50 of the first is lower: 5.00 to 6.00 for the first, greater than 6.70 for the second.

First: CC(=O)N(C)CCN(C)c1cncc(Oc2ccc(-c3cc(N4CCN(C)CC4)ccn3)cc2)n1 [Compound 173, N-Methyl-N-{2-[methyl-(6-{4-[4-(4-methyl-piperazin-1-yl)-pyridin-2-yl]-phenoxy}-pyrazin-2-yl)-amino]-ethyl}-acetamide]
Second: CC(=O)N(C)CCCc1cncc(Oc2ccc(-c3ccncc3C#N)cc2)c1 [Compound 321, N-(3-{5-[4-(3-Cyano-pyridin-4-yl)-phenoxy]-pyridin-3-yl}-propyl)-N-methyl-acetamide]
The pIC50 of the first is lower: 5.00 to 6.00 for the first, greater than 6.70 for the second. The second is the more potent here.
